In patent publication US20240065983A1, “COMPOSITION AND METHOD FOR TREATING COVID-19” (University of South Florida, priority 2021, published 2024):

Assays:
[1] = tested on: SARS CoV2 variants (WA, UK B.1.1.7, SA B.1.351); assay type: cell-based, SARS-CoV-2
SARS-CoV-2 delta = assay type: cell-based

In the case of `CC(O)c1ccc(CCOc2ccc(CC3SC(=O)NC3=O)cc2)nc1` (stereo not drawn) [LG, leriglitazone], the “expression of CoV2-N gene and S genes” value [1] was “significantly inhibited”, the “expression of inflammatory genes TNFα, IL-6, IL1β” value ([1]; LG 20 uM, all CoV2 strains) was “down-regulated at the transcript level” and the “expression of N and inflammatory gene transcripts” value (SARS-CoV-2 delta) was “decreased expression of N and several inflammatory gene transcripts”.
